Patent publication US10414765B2, “Substituted perhydropyrrolo[3,4-c]pyrrole derivatives and the use of same” (BAYER PHARMA AKTIENGESELLSCHAFT, priority 2015, dated 2019)

Legend:
Type in all cases: cell-based
human TASK-1 [1] = target: T1, human TASK-1 (Homo sapiens (Human), UniProt O14649); assay: Inhibition of recombinant TASK-1 in stably transfected CHO cells (voltage-sensitive dye, 40 mM KCl depolarization); conditions: 40 mM potassium chloride
Protocol: (§1) B-2. Inhibition of Recombinant TASK-1 and TASK-3 In Vitro
(§2) The investigations on the inhibition of the recombinant TASK-1 and TASK-3 channels were conducted using stably transfected CHO cells. The compounds according to the invention were tested in this case by application of 40 mM potassium chloride in the presence of a voltage-sensitive dye according to the methods described in detail in the following references [Whiteaker et al., Validation of FLIPR membrane potential dye for high-throughput screening of potassium channel modulators, J. Biomol. Screen. 6 (5), 305-312 (2001); Molecular Devices FLIPR Application Note: Measuring membrane potential using the FLIPR® membrane potential assay kit on Fluorometric Imaging Plate Reader (FLIPR®) systems, http://www.moleculardevices.com/reagents-supplies/assay-kits/ion-channels/flipr-membrane-potential-assay-kits]. The activity of the test substances was determined as their ability to inhibit a depolarization induced in the recombinant cells by 40 mM potassium chloride. The concentration which can block half of this depolarization is referred to as IC50.

human TASK-3 [2] = target: T2, human TASK-3 (Homo sapiens (Human), UniProt Q9NPC2); assay: Inhibition of recombinant TASK-3 in stably transfected CHO cells (voltage-sensitive dye, 40 mM KCl depolarization); conditions: 40 mM potassium chloride
Protocol: as §1, §2

human TASK-1 [3] = target: T1, human TASK-1; assay: Two-electrode voltage clamp of human TASK-1 channels expressed in Xenopus laevis oocytes
Protocol: (§3) B-1. In Vitro Electrophysiological Analysis of the Human TASK-1 and TASK-3 Channels Via Two-Electrode Voltage Clamp Technique in Xenopus laevis Oocytes
(§4) Xenopus laevis oocytes were selected as described elsewhere by way of illustration [Decher et al., FEBS Lett. 492, 84-89 (2001)]. Subsequently, the oocytes were injected with 0.5-5 ng of a cRNA solution coding for TASK-1 or TASK-3. For the electrophysiological analysis of the channel proteins expressed in the oocytes, the two-electrode voltage clamp technique [Stiihmer, Methods Enzymol. 207, 319-339 (1992)] was used. The measurements were conducted as described [Decher et al., FEBS Lett. 492, 84-89 (2001)] at room temperature (21-22° C.) using a Turbo TEC 10CD amplifier (NPI), recorded at 2 kHz and filtered with 0.4 kHz. Substance administration was performed using a gravitation-driven perfusion system. Here, the oocyte is located in a measuring chamber and exposed to the solution stream of 10 ml/min. The level in the measuring chamber is monitored and regulated by sucking off the solution using a peristaltic pump.

human TASK-3 [4] = target: T2, human TASK-3; assay: Two-electrode voltage clamp of human TASK-3 channels expressed in Xenopus laevis oocytes
Protocol: as §3, §4

T1 sequence (O14649 whole entry): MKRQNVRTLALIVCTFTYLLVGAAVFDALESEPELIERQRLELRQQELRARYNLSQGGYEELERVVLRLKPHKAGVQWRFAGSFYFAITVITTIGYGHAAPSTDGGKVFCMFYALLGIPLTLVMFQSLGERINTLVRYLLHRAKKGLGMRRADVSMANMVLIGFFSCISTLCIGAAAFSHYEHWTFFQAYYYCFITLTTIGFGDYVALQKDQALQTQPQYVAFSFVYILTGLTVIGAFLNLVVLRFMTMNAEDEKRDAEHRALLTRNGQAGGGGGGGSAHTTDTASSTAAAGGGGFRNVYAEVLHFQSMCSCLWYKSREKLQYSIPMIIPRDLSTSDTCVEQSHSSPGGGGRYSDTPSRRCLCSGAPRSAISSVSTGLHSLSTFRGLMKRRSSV
T2 sequence (Q9NPC2 whole entry): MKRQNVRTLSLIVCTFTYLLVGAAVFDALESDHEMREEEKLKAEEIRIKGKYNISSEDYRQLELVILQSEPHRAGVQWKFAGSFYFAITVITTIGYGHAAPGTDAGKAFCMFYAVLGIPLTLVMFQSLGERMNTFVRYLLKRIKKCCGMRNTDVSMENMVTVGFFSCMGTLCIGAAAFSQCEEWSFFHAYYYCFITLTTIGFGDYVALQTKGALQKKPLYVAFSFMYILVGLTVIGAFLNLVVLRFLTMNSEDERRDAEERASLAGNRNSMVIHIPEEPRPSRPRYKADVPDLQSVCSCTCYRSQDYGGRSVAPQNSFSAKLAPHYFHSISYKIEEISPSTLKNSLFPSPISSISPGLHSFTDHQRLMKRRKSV

| IC50 (human TASK-1 [1]) | IC50 (human TASK-3 [2]) | SMILES | other results |
| --- | --- | --- | --- |
| 2410 nM | 6100 nM | CC(C)(C)OC(=O)N1CC2CN(Cc3c(-c4ccc(Cl)cc4)nc4ccccn34)CC2C1 (centres unmarked) [Example 1, tert-butyl 5-{[2-(4-chlorophenyl)imidazo [1,2-a]pyridin-3-yl]methyl}hexahydropyrrolo[3,4-c]pyrrole-2(1H)-carboxylate] | – |
| 1730 nM | 5400 nM | CC(C)(C)OC(=O)N1CC2CN(Cc3c(-c4ccc(Br)cc4)nc4ccccn34)CC2C1 (centres unmarked) [Example 2] | – |
| 2500 nM | 7400 nM | CC(C)c1ccc(-c2nc3ccccn3c2CN2CC3CN(C(=O)OC(C)(C)C)CC3C2)cc1 (centres unmarked) [Example 3] | – |
| 947 nM | 2300 nM | COc1cccc(C(=O)N2CC3CN(Cc4c(-c5ccc(Cl)cc5)nc5ccccn45)CC3C2)n1 (centres unmarked) [Example 4, [5-{[2-(4-Chlorophenyl)imidazo[1,2-a]pyridin-3-yl]methyl}hexahydropyrrolo[3,4-c]pyrrol-2(1H)-yl](6-methoxypyridin-2-yl)methanone] | IC50 (human TASK-1 [3]): 59.9 ± 16.2 nM; IC50 (human TASK-3 [4]): 256 ± 48.8 nM |
| 1130 nM | 1600 nM | O=C(C1CCCC1)N1CC2CN(Cc3c(-c4ccc(Br)cc4)nc4ccccn34)CC2C1 (centres unmarked) [Example 5, [5-{[2-(4-Bromophenyl)imidazo[1,2-a]pyridin-3-yl]methyl}hexahydropyrrolo[3,4-c]pyrrol-2(1H)-yl](cyclopentyl)methanone] | – |
| 683 nM | 1300 nM | O=C(c1ccccc1F)N1CC2CN(Cc3c(-c4ccc(Br)cc4)nc4ccccn34)CC2C1 (centres unmarked) [Example 6] | – |
| 787 nM | 4300 nM | O=C(c1cc(F)ccc1Cl)N1CC2CN(Cc3c(-c4ccc(Br)cc4)nc4ccccn34)CC2C1 (centres unmarked) [Example 7] | – |
| 1360 nM | 810 nM | O=C(C1CCCCC1)N1CC2CN(Cc3c(-c4ccc(Br)cc4)nc4ccccn34)CC2C1 (centres unmarked) [Example 8] | – |
| 749 nM | 660 nM | O=C(C1CCC1)N1CC2CN(Cc3c(-c4ccc(Br)cc4)nc4ccccn34)CC2C1 (centres unmarked) [Example 9] | – |
| 1210 nM | 2500 nM | COc1ccccc1C(=O)N1CC2CN(Cc3c(-c4ccc(Br)cc4)nc4ccccn34)CC2C1 (centres unmarked) [Example 11] | – |
| 1200 nM | 960 nM | COc1ccc(F)cc1C(=O)N1CC2CN(Cc3c(-c4ccc(Br)cc4)nc4ccccn34)CC2C1 (centres unmarked) [Example 12] | – |
| 712 nM | 1300 nM | Cc1ccccc1C(=O)N1CC2CN(Cc3c(-c4ccc(Br)cc4)nc4ccccn34)CC2C1 (centres unmarked) [Example 13] | – |
| 1060 nM | 3400 nM | O=C(c1ccccc1F)N1CC2CN(Cc3c(-c4ccc(Cl)cc4)nc4ccccn34)CC2C1 (centres unmarked) [Example 14] | – |
| 1000 nM | 2900 nM | O=C(c1cc(F)ccc1Cl)N1CC2CN(Cc3c(-c4ccc(Cl)cc4)nc4ccccn34)CC2C1 (centres unmarked) [Example 15] | – |
| 1940 nM | 1100 nM | O=C(C1CCCCC1)N1CC2CN(Cc3c(-c4ccc(Cl)cc4)nc4ccccn34)CC2C1 (centres unmarked) [Example 16] | – |
| 1680 nM | 4900 nM | COc1ccccc1C(=O)N1CC2CN(Cc3c(-c4ccc(Cl)cc4)nc4ccccn34)CC2C1 (centres unmarked) [Example 18] | – |
| 1250 nM | 1500 nM | COc1ccc(F)cc1C(=O)N1CC2CN(Cc3c(-c4ccc(Cl)cc4)nc4ccccn34)CC2C1 (centres unmarked) [Example 19] | – |
| 1020 nM | 2500 nM | Cc1ccccc1C(=O)N1CC2CN(Cc3c(-c4ccc(Cl)cc4)nc4ccccn34)CC2C1 (centres unmarked) [Example 20] | – |
| 1250 nM | 230 nM | Cc1ccc(F)cc1C(=O)N1CC2CN(Cc3c(-c4ccc(Cl)cc4)nc4ccccn34)CC2C1 (centres unmarked) [Example 21] | – |
| 1460 nM | 320 nM | O=C(c1cccc(OC(F)(F)F)c1)N1CC2CN(Cc3c(-c4ccc(Cl)cc4)nc4ccccn34)CC2C1 (centres unmarked) [Example 22] | – |
| 728 nM | 100 nM | O=C(c1cccc(C(F)(F)F)c1)N1CC2CN(Cc3c(-c4ccc(Cl)cc4)nc4ccccn34)CC2C1 (centres unmarked) [Example 23] | – |
| 330 nM | 800 nM | COc1cccc(C(=O)N2CC3CN(Cc4c(-c5ccc(Br)cc5)nc5ccccn45)CC3C2)n1 (centres unmarked) [Example 24] | – |
| 220 nM | 310 nM | CC(C)c1ccc(-c2nc3ccccn3c2CN2CC3CN(C(=O)c4ccccc4F)CC3C2)cc1 (centres unmarked) [Example 26] | – |

| IC50 (human TASK-1 [1]) | IC50 (human TASK-3 [2]) | SMILES | other results |
| --- | --- | --- | --- |
| 170 nM | 170 nM | COc1cccc(C(=O)N2CC3CN(Cc4c(-c5ccc(C(C)C)cc5)nc5ccccn45)CC3C2)c1 (centres unmarked) [Example 27] | – |
| 300 nM | 190 nM | CC(C)c1ccc(-c2nc3ccccn3c2CN2CC3CN(C(=O)C4CCCC4)CC3C2)cc1 (centres unmarked) [Example 28] | – |
| 920 nM | 2100 nM | CN(C(=O)N1CC2CN(Cc3c(-c4ccc(Br)cc4)nc4ccccn34)CC2C1)c1ccccc1 (centres unmarked) [Example 29, 5-{[2-(4-Bromophenyl)imidazo[1,2-a]pyridin-3-yl]methyl}-N-methyl-N-phenylhexahydropyrrolo[3,4-c]pyrrole-2(1H)-carboxamide] | – |
| 480 nM | 1200 nM | O=C(N1CC2CN(Cc3c(-c4ccc(Br)cc4)nc4ccccn34)CC2C1)N1CCCc2ccccc21 (centres unmarked) [Example 30] | – |
| 1100 nM | 1200 nM | CC(C)COC(=O)N1CC2CN(Cc3c(-c4ccc(Br)cc4)nc4ccccn34)CC2C1 (centres unmarked) [Example 32] | – |
| 460 nM | 4400 nM | O=C(OCc1ccccc1)N1CC2CN(Cc3c(-c4ccc(Br)cc4)nc4ccccn34)CC2C1 (centres unmarked) [Example 33] | – |
| 500 nM | 3300 nM | O=C(OC1CCCC1)N1CC2CN(Cc3c(-c4ccc(Br)cc4)nc4ccccn34)CC2C1 (centres unmarked) [Example 34] | – |
| 700 nM | 1700 nM | CC(C)OC(=O)N1CC2CN(Cc3c(-c4ccc(Br)cc4)nc4ccccn34)CC2C1 (centres unmarked) [Example 35] | – |
| 600 nM | 1800 nM | O=C(OCCF)N1CC2CN(Cc3c(-c4ccc(Br)cc4)nc4ccccn34)CC2C1 (centres unmarked) [Example 37] | – |
| 1500 nM | 1900 nM | O=C(Nc1ccc(F)cc1F)N1CC2CN(Cc3c(-c4ccc(Br)cc4)nc4ccccn34)CC2C1 (centres unmarked) [Example 38, 5-{[2-(4-Bromophenyl)imidazo[1,2-a]pyridin-3-yl]methyl}-N-(2,4-difluorophenyl)hexahydropyrrolo[3,4-c]pyrrole-2(1H)-carboxamide] | – |
| 580 nM | 2900 nM | O=C(Nc1ccccc1F)N1CC2CN(Cc3c(-c4ccc(Br)cc4)nc4ccccn34)CC2C1 (centres unmarked) [Example 41] | – |
| 1700 nM | 2000 nM | O=C(Nc1ccc(Cl)c(C(F)(F)F)c1)N1CC2CN(Cc3c(-c4ccc(Br)cc4)nc4ccccn34)CC2C1 (centres unmarked) [Example 43] | – |
| 700 nM | 2000 nM | O=C(Nc1cc(C(F)(F)F)ccc1Cl)N1CC2CN(Cc3c(-c4ccc(Br)cc4)nc4ccccn34)CC2C1 (centres unmarked) [Example 44] | – |
| 2300 nM | 5800 nM | O=C(NC1CCCCC1)N1CC2CN(Cc3c(-c4ccc(Br)cc4)nc4ccccn34)CC2C1 (centres unmarked) [Example 45] | – |
| 460 nM | 2200 nM | CC(NC(=O)N1CC2CN(Cc3c(-c4ccc(Br)cc4)nc4ccccn34)CC2C1)c1ccccc1 (centres unmarked) [Example 46] | – |
| 1000 nM | 240 nM | O=C(Nc1ccc(F)cc1)N1CC2CN(Cc3c(-c4ccc(Br)cc4)nc4ccccn34)CC2C1 (centres unmarked) [Example 47] | – |
| 78 nM | 79 nM | COc1ccc(F)c(C(=O)N2CC3CN(Cc4c(-c5ccc(C(C)C)cc5)nc5ccccn45)CC3C2)n1 (centres unmarked) [Example 48] | – |
| 94 nM | 4.6 nM | COc1ccc(C)c(C(=O)N2CC3CN(Cc4c(-c5ccc(Cl)cc5)nc5ccccn45)CC3C2)n1 (centres unmarked) [Example 49] | – |
| 1100 nM | 110 nM | COc1ccc(F)c(C(=O)N2CC3CN(Cc4c(-c5ccc(Cl)cc5)nc5ccccn45)CC3C2)n1 (centres unmarked) [Example 50] | – |
| 1400 nM | 80 nM | COc1ccc(Cl)c(C(=O)N2CC3CN(Cc4c(-c5ccc(Cl)cc5)nc5ccccn45)CC3C2)n1 (centres unmarked) [Example 51] | – |
| 15000 nM | 2400 nM | O=C(c1ccccc1)N1CC2CN(Cc3c(-c4ccc(Cl)cc4)nc4ccc(-c5ccccc5)cn34)CC2C1 (centres unmarked) [Example 160 in WO 2014/187922, reference compound] | – |
| – | – | O=C(c1ccccc1)N1CC2CN(Cc3c(-c4ccc(Cl)cc4)nc4ccc(-c5ccccc5)cn34)CC2C1 (centres unmarked) [comparative compound, reference compound] | IC50 (human TASK-1 [3]): > 10000 nM; inhibition at 1 µM (human TASK-1 [3]; 1 μM): 11.4 ± 1.5%; inhibition at 10 µM (human TASK-1 [3]; 10 μM): 37.2 ± 7.5%; TASK-3 IC50 (human TASK-3 [4]): inactive; inhibition at 1 µM (human TASK-3 [4]; 1 μM): 5.6 ± 1.3%; inhibition at 10 µM (human TASK-3 [4]; 10 μM): 8.9 ± 0.9% |

| SMILES | IC50 (human TASK-1 [1]) | IC50 (human TASK-3 [2]) | other results |
| --- | --- | --- | --- |
| O=C(Oc1cccc(C(F)(F)F)c1)N1CC2CN(Cc3c(-c4ccc(Br)cc4)nc4ccccn34)CC2C1 (centres unmarked) [Example 36] | 180 nM | 450 nM | – |
